This data set in a line: Human HepG2 cell viability assay in 384 well format. It counts as toxicity, cell-based. On the set-up: dose 125 nL, time 70.5 hour; cytotoxicity at 70.5 h: concentration not given beside the values. To be noted: HepG2 cells, read-out: Inhibition.

For `Cc1nnc(NC(=O)N2CCCN(C3CCCC3)CC2)s1`, the cytotoxicity at 70.5 h is -2.92%.

Consider `CCSc1ncc(CN2CCN(c3nc(C)cnc3C)CC2)cn1`, for which the cytotoxicity at 70.5 h is 23.3%. Then `NC(=O)CN1CC2(CCC1=O)CCN(C(=O)c1ccccc1F)CC2`, with 33.9%; and `CCOC(=O)c1cccc(N2CCCC3(CCC(=O)N(C4CC4)C3)C2)n1` (stereo not drawn), with -2.93%.

For `CCc1c(C)nc(N)nc1N1CCCC(c2nc(CCOC)no2)C1` (stereo not drawn), the cytotoxicity at 70.5 h was 4.51%. Then `COCc1noc(Cn2ncn3cccc3c2=O)n1`, with 6.69%; and `Cc1n[nH]c(C)c1-c1cc(-c2cccc(O)c2)nc(N)c1C#N`, with -8.76%. As for `CCCc1cnc(C)nc1N1CCC(Cc2ccc(CO)cc2)C1` (stereo not drawn), the figure is -10.5%; as for `CC(=O)N[C@@H](CC(C)C)C(=O)N1CCC(n2cc(C(C)(C)N)nn2)CC1`, -2.68%; as for `COc1ccc(C(=O)C2CCCN(Cc3cc(C)n[nH]3)C2)c(OC)c1` (stereo not drawn), -5.48%. Then `CC1CN(Cc2ccccc2Cn2cccn2)CCN1C` (stereo not drawn), with -0.364%; and `O=C1O[C@@H]2CN(Cc3ccsc3)C[C@@H]2N1Cc1ccccn1`, with 2.38%. Take `COc1ccccc1-n1nc(-c2ccco2)n(CC(=O)NC(C)C)c1=O`: the cytotoxicity at 70.5 h is -6.38%.

Consider `CC(C)=CCN1C[C@@H]2CN(C(=O)c3ccc(CO)cc3)C[C@]2(C(=O)O)C1`, for which the cytotoxicity at 70.5 h is -12.2%. Then `O=C(O)CCc1cc2n(n1)CCN(Cc1cnc(N3CCCC3)nc1)C2`, with -2.38%; and `Cc1cc(C)nc(NCc2nnc3n2CCCCC3)n1`, with 13.9%; and `Cc1nn(C)c2nc(NC(C)c3nnn[nH]3)sc12` (stereo not drawn), with 11.9%. Take `COc1cc(F)ccc1-c1nc2c([nH]1)c(C1CC1)nn2C`: the cytotoxicity at 70.5 h is -10.9%. With `CC1CCN(CC(=O)N(C)CCc2noc(C3CC3)n2)C1=O` (stereo not drawn), the cytotoxicity at 70.5 h was -5.01%. `CNC(=O)[C@@H]1C[C@H](N)CN1Cc1cc2cc(C)cc(C)c2[nH]c1=O`: the cytotoxicity at 70.5 h was -13.7%. Regarding `Cc1cnn(CC2CCN(c3cc(C(C)C)nc4ccnn34)CC2)c1`, the cytotoxicity at 70.5 h was -0.486%. Then `CC(Cc1ccc2c(c1)OCO2)c1cn(CCc2c[nH]cn2)nn1` (stereo not drawn), with -6.47%; and `COCCN1CCCC2(CCN(c3nc(C)nc4c3CCC4)C2)C1=O` (stereo not drawn), with -4.89%; and `CC(C)CC(=O)N1CCc2ccc(S(=O)(=O)N3CCN(C)CC3)cc2C1`, with -8.6%. Then `CCN1CCN(C(=O)c2[nH]c3ccccc3c2Cl)[C@H]2CS(=O)(=O)C[C@H]21`, with -2.45%; and `O=C1O[C@@H]2CN(Cc3ccccn3)C[C@@H]2N1CCCc1ccc(F)cc1`, with 6.23%. As for `Cc1cc(NCc2cc(C)oc2C(F)(F)F)n2nc(C)cc2n1`, the figure is -2.81%. With `CCOCCn1nc(C)cc1C(=O)N1C[C@@H](C)[C@](O)(C2CC2)C1`, the cytotoxicity at 70.5 h is -2.07%. As for `CCOCC(C)(C)NC(=O)Nc1cc(F)ccc1OC`, the cytotoxicity at 70.5 h is -5.66%. Then `CC(=O)NCCn1ccnc1-c1cccc(C(C)N(C)C)c1` (stereo not drawn), with 5.57%. As for `O=C(c1ccc2sccc2c1)N1CCC(C(=O)O)(n2ccnc2)CC1`, the cytotoxicity at 70.5 h is 3.47%.

Take `c1ccn2c(C3CCCN(c4ncnc5c4CCNC5)C3)nnc2c1` (stereo not drawn): the cytotoxicity at 70.5 h amounted to 8.25%.

Take `Cc1cc(C(F)(F)F)nc(CNC(=O)CCC2CCCN(C)C2)n1` (stereo not drawn): the cytotoxicity at 70.5 h was -6.3%.

`c1cc2c(cc1CN1CCCC3(CCOC3)C1)OCO2` (stereo not drawn): the cytotoxicity at 70.5 h was 41.1%.

As for `CCc1nc(CNc2ccc(-c3nc(C4CC4)no3)cn2)no1`, the cytotoxicity at 70.5 h is -9.74%. As for `O[C@@]1(CNCC2(Cn3cccn3)CC2)CCCN2CCCC[C@@H]21`, the cytotoxicity at 70.5 h is -11.3%.

As for `C[C@@H]1CN(c2ccc(C#N)cn2)CC[C@@]1(O)C1CCOCC1`, the cytotoxicity at 70.5 h is 27.2%.

Consider `COCCN(C)C[C@@H]1CN(C(=O)c2sc3ccccc3c2C)C[C@@H]1CO`, for which the cytotoxicity at 70.5 h was -6.69%.

For the origin of these results see ChEMBL document CHEMBL3507680, “University of Dundee, Gates Library screen for HepG2 cell viability”.
